Test results reported in patent US8461160B2, “Dihydropyrimidinones” (Hoffmann-La Roche, Inc., priority 2009, dated 2013).

These compounds were tested against T1, BACE2 (Homo sapiens, UniProt Q9Y5Z0) (assay: Fluorescent-peptide cleavage assay for BACE2 inhibition). Details: BACE2 enzyme ectodomain, fluorescent peptide WS EVNLD AEFRC-MR121, assay buffer pH 4.5, room temperature.
T1 construct: BACE2 enzyme ectodomain (derived from plasmid “pET17b-T7-hu proBACE2”) was prepared as described in Ostermann et al; T7 tag (N); made in house
T1 sequence (Q9Y5Z0 21-473 limits assumed): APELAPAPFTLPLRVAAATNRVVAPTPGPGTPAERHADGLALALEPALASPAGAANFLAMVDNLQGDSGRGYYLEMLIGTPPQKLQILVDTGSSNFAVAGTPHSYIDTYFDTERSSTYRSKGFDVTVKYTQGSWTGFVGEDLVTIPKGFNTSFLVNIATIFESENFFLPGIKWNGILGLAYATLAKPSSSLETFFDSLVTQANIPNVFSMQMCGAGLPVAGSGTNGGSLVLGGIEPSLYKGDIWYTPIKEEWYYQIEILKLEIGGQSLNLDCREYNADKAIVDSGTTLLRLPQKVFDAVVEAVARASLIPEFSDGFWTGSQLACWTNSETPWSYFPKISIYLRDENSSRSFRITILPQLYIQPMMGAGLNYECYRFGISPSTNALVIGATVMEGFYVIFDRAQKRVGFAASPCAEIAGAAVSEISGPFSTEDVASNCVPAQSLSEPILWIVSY
Assay type: biochemical
Method: Fluorescent-Peptide Cleavage Assay for BACE2 Inhibition
The pro-enzyme was stored at 4° C. at a concentration of 70 μg/ml.
A fluorescent peptide with the amino acid sequence WS EVNLD AEFRC-MR121 was synthesised and a stock solution of 1.5 mM in DMSO prepared and stored at −20° C. MR121 is a fluorophore with an excitation wavelength of 630 nm and emission wavelength of 695 nm. The MR121 fluorescence is quenched by the N-terminal tryptophan until the peptide is cleaved by BACE2.
Assays were all made in a Corning 384-well black polystyrene non-binding surface microtitre plate with clear flat bottom and using a Plate:Vision (Perkin Elmer) fluorescence reader. To perform the assay an 80 nM solution of BACE2 was prepared in assay buffer (assay buffer is 100 mM Na-acetate; 20 mM EDTA; 0.05% BSA; pH 4.5) and incubated at room temperature for 1 hour to activate the enzyme. 39 μl of the activated BACE2 was placed in each assay well, followed by 1 μl compound to be tested at an appropriate concentration in 100% DMSO. The plate was then mixed and incubated for 10 minutes at room temperature.
The assay readout is the rate of change of fluorescence intensity giving a relative measure of BACE2 activity. Small values correspond to high inhibition and larger values to low inhibition. […] IC50 values were determined using these assay values generated for a range of inhibitor concentrations and the curve fitting software XLfit (IDBS) using the Sigmoidal Dose-Response Model.

Row | SMILES | IC50 [nM]
1 | Cc1cc(C(=O)Nc2ccc(F)c([C@@]3(C)N=C(N)N(C)C(=O)C3(C)C)c2)no1 [Example 116, 5-Methyl-isoxazole-3-carboxylic acid [3-((S)-2-amino-1,4,5,5-tetramethyl-6-oxo-1,4,5,6-tetrahydro-pyrimidin-4-yl)-4-fluoro-phenyl]amide] | 840
2 | Cc1cc(Cl)cnc1C(=O)Nc1cccc([C@]2(C)CC(=O)N(C)C(N)=N2)c1 [Example 75, 5-Chloro-3-methyl-pyridine-2-carboxylic acid [3-((S)-2-amino-1,4-dimethyl-6-oxo-1,4,5,6-tetrahydro-pyrimidin-4-yl)-phenyl]-amide] | 17
3 | CN1C(=O)C(C)(C)[C@@](C)(c2cc(NC(=O)c3cnc(Cl)cn3)ccc2F)N=C1N [Example 107, 5-Chloro-pyrazine-2-carboxylic acid [3-((S)-2-amino-1,4,5,5-tetramethyl-6-oxo-1,4,5,6-tetrahydro-pyrimidin-4-yl)-4-fluoro-phenyl]amide] | 27
4 | CN1C(=O)C[C@@](C)(c2cccc(NC(=O)c3cc4ccccc4cn3)c2)N=C1N [Example 57, Isoquinoline-3-carboxylic acid [3-((S)-2-amino-1,4-dimethyl-6-oxo-1,4,5,6-tetrahydro-pyrimidin-4-yl)-phenyl]amide] | 110
5 | CC[C@@]1(c2cccc(NC(=O)c3ccc(C(F)(F)F)cn3)c2)CC(=O)N(C)C(N)=N1 [Example 86, 5-Trifluoromethyl-pyridine-2-carboxylic acid [3-((S)-2-amino-4-ethyl-1-methyl-6-oxo-1,4,5,6-tetrahydro-pyrimidin-4-yl)-phenyl]amide] | 250
6 | Cc1ccnc(C(=O)Nc2cccc([C@]3(C)CC(=O)N(C)C(N)=N3)c2)c1 [Example 30, 4-Methyl-pyridine-2-carboxylic acid [3-((S)-2-amino-1,4-dimethyl-6-oxo-1,4,5,6-tetrahydro-pyrimidin-4-yl)-phenyl]-amide] | 150
7 | CN1C(=O)C[C@@](C)(c2cccc(NC(=O)c3ncccc3-c3ccccc3)c2)N=C1N [Example 37, 3-Phenyl-pyridine-2-carboxylic acid [3-((S)-2-amino-1,4-dimethyl-6-oxo-1,4,5,6-tetrahydro-pyrimidin-4-yl)-phenyl]-amide] | 21
8 | Cc1ccc(C(=O)Nc2cccc([C@]3(C)CC(=O)N(C)C(N)=N3)c2)s1 [Example 1, 5-Methyl-thiophene-2-carboxylic acid [3-((S)-2-amino-1,4-dimethyl-6-oxo-1,4,5,6-tetrahydro-pyrimidin-4-yl)-phenyl]-amide] | 13
9 | CN1C(=O)C[C@@](C)(c2cccc(NC(=O)c3nccc4ccsc34)c2)N=C1N [Example 60, Thieno[2,3-c]pyridine-7-carboxylic acid [3-((S)-2-amino-1,4-dimethyl-6-oxo-1,4,5,6-tetrahydro-pyrimidin-4-yl)-phenyl]-amide] | 240
10 | CN1C(=O)C(C)(C)[C@@](C)(c2cc(NC(=O)c3ncoc3-c3ccccc3)ccc2F)N=C1N [Example 109, 5-Phenyl-oxazole-4-carboxylic acid [3-((S)-2-amino-1,4,5,5-tetramethyl-6-oxo-1,4,5,6-tetrahydro-pyrimidin-4-yl)-4-fluoro-phenyl]amide] | 170
11 | CN1C(=O)C[C@@](C)(c2cccc(NC(=O)c3ccccc3)c2)N=C1N [Example 34, N-[3-((S)-2-Amino-1,4-dimethyl-6-oxo-1,4,5,6-tetrahydro-pyrimidin-4-yl)-phenyl]-benzamide] | 200
12 | Cc1ncc(C(=O)Nc2cccc([C@]3(C)CC(=O)N(C)C(N)=N3)c2)cn1 [Example 35, 2-Methyl-pyrimidine-5-carboxylic acid [3-((S)-2-amino-1,4-dimethyl-6-oxo-1,4,5,6-tetrahydro-pyrimidin-4-yl)-phenyl]-amide] | 6420
13 | Cc1ccc(C(=O)Nc2cccc([C@]3(C)CC(=O)N(C)C(N)=N3)c2)nc1 [Example 12, 5-Methyl-pyridine-2-carboxylic acid [3-((S)-2-amino-1,4-dimethyl-6-oxo-1,4,5,6-tetrahydro-pyrimidin-4-yl)-phenyl]amide] | 37
14 | CN1C(=O)C(C)(C)[C@@](C)(c2cc(NC(=O)c3cn(C)cn3)ccc2F)N=C1N [Example 112, 1-Methyl-1H-imidazole-4-carboxylic acid [3-((S)-2-amino-1,4,5,5-tetramethyl-6-oxo-1,4,5,6-tetrahydro-pyrimidin-4-yl)-4-fluoro-phenyl]amide] | 1260
15 | CC[C@@]1(c2cccc(NC(=O)c3ccc(Cl)s3)c2)CC(=O)N(C)C(N)=N1 [Example 41, 5-Chloro-thiophene-2-carboxylic acid [3-((S)-2-amino-4-ethyl-1-methyl-6-oxo-1,4,5,6-tetrahydro-pyrimidin-4-yl)-phenyl]-amide] | 95

The remaining compounds from weak to strong by IC50, led by results:

Row | IC50 [nM] | SMILES
16 | 960 | CN1C(=O)C[C@@](C)(c2cccc(NC(=O)c3ccncc3)c2)N=C1N [Example 26, N-[3-((S)-2-Amino-1,4-dimethyl-6-oxo-1,4,5,6-tetrahydro-pyrimidin-4-yl)-phenyl]-isonicotinamide]
17 | 410 | CN1C(=O)C[C@@](C)(c2cccc(NC(=O)c3ccc4ccccc4n3)c2)N=C1N [Example 58, Quinoline-2-carboxylic acid [3-((S)-2-amino-1,4-dimethyl-6-oxo-1,4,5,6-tetrahydro-pyrimidin-4-yl)-phenyl]-amide]
18 | 170 | CCC[C@@]1(c2cccc(NC(=O)c3ccc(Cl)cn3)c2)CC(=O)N(C)C(N)=N1 [Example 87, 5-Chloro-pyridine-2-carboxylic acid [3-((S)-2-amino-1-methyl-6-oxo-4-propyl-1,4,5,6-tetrahydro-pyrimidin-4-yl)-phenyl]-amide]
19 | 160 | Cc1nc(C(=O)Nc2cccc([C@]3(C)CC(=O)N(C)C(N)=N3)c2)cs1 [Example 67, 2-Methyl-thiazole-4-carboxylic acid [3-((S)-2-amino-1,4-dimethyl-6-oxo-1,4,5,6-tetrahydro-pyrimidin-4-yl)-phenyl]-amide]
20 | 120 | Cc1ccc(C(=O)Nc2cccc([C@]3(C)CC(=O)N(C)C(N)=N3)c2)cc1 [Example 17, N-[3-((S)-2-Amino-1,4-dimethyl-6-oxo-1,4,5,6-tetrahydro-pyrimidin-4-yl)-phenyl]-4-methyl-benzamide]
21 | 110 | CN1C(=O)C[C@@](C)(c2cccc(NC(=O)c3cn4ccccc4n3)c2)N=C1N [Example 9, Imidazo[1,2-a]pyridine-2-carboxylic acid [3-((S)-2-amino-1,4-dimethyl-6-oxo-1,4,5,6-tetrahydro-pyrimidin-4-yl)-phenyl]amide]
22 | 49 | Cc1cccnc1C(=O)Nc1ccc(F)c([C@@]2(C)N=C(N)N(C)C(=O)C2(C)C)c1 [Example 105, 3-Methyl-pyridine-2-carboxylic acid [3-((S)-2-amino-1,4,5,5-tetramethyl-6-oxo-1,4,5,6-tetrahydro-pyrimidin-4-yl)-4-fluoro-phenyl]amide]
23 | 48 | CN1C(=O)C[C@@](C)(c2cccc(NC(=O)c3cc(Cl)ccn3)c2)N=C1N [Example 29, 4-Chloro-pyridine-2-carboxylic acid [3-((S)-2-amino-1,4-dimethyl-6-oxo-1,4,5,6-tetrahydro-pyrimidin-4-yl)-phenyl]-amide]
24 | 39 | CC[C@@]1(c2cccc(NC(=O)c3ccccn3)c2)CC(=O)N(C)C(N)=N1 [Example 40, Pyridine-2-carboxylic acid [3-((S)-2-amino-4-ethyl-1-methyl-6-oxo-1,4,5,6-tetrahydro-pyrimidin-4-yl)-phenyl]-amide]
25 | 33 | C[C@@]1(c2cccc(NC(=O)c3ccc(Cl)cn3)c2)CC(=O)NC(N)=N1 [Example 51, 5-Chloro-pyridine-2-carboxylic acid [3-((S)-2-amino-4-methyl-6-oxo-1,4,5,6-tetrahydro-pyrimidin-4-yl)-phenyl]amide]
26 | 10 | CN1C(=O)C[C@@](C)(c2cccc(NC(=O)c3cnc(Cl)cn3)c2)N=C1N [Example 25, 5-Chloro-pyrazine-2-carboxylic acid [3-((S)-2-amino-1,4-dimethyl-6-oxo-1,4,5,6-tetrahydro-pyrimidin-4-yl)-phenyl]-amide]
27 | 9 | CN1C(=N)N[C@](C)(c2cc(NC(=O)c3ccc(C(F)(F)F)cn3)ccc2F)CC1=O [Example 48, 5-Trifluoromethyl-pyridine-2-carboxylic acid [3-((S)-2-amino-1,4-dimethyl-6-oxo-1,4,5,6-tetrahydro-pyrimidin-4-yl)-4-fluoro-phenyl]amide]
